Activity calls are given as the source filed them. The rule behind the calls is not given here.
molecular target: Thymidine phosphorylase (Escherichia coli K-12) (UniProt P07650); assay: (§1) Inhibition of Escherichia coli thymidine phosphorylase by spectrophotometry
Sequence (P07650 whole entry, looked up): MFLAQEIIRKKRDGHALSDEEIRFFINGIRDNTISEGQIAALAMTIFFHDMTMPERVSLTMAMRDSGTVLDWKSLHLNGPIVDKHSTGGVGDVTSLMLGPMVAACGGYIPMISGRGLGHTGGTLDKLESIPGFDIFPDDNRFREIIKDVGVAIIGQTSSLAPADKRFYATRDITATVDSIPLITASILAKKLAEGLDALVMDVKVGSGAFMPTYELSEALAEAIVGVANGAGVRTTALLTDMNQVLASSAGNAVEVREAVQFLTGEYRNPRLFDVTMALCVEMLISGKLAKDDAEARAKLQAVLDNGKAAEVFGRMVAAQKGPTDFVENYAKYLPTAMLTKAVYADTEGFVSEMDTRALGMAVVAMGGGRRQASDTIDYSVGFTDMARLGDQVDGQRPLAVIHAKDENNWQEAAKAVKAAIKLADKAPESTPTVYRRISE

Structure (SMILES)	Activity
CC1(C)[C@@H](O)CC[C@]2(C)[C@H]3CCO[C@]3(C)CC[C@@H]12	inactive
CC1(C)C(=O)CC[C@]2(C)[C@H]3CCO[C@]3(C)CC[C@@H]12	inactive
CC1(C)[C@@H](O)C[C@H](O)[C@]2(C)[C@H]3CCO[C@]3(C)CC[C@@H]12	inactive
CC1(C)CCC[C@]2(C)[C@H]3CCO[C@]3(C)CC[C@@H]12	inactive
CC1(C)CC[C@H](O)[C@]2(C)[C@H]3CCO[C@]3(C)CC[C@@H]12	inactive

molecular target: Thymidine phosphorylase (Escherichia coli K-12, UniProt P07650); assay: as §1
Sequence (P07650 whole entry): as the sequence (P07650 whole entry, looked up) above

Structure (SMILES)	IC50 [µM]
CC1(C)[C@@H](O)CC[C@]2(C)[C@H]3CCO[C@]3(C)C[C@@H](O)[C@@H]12	81.4
CC1(C)CC[C@H](O)[C@]2(C)[C@H]3CCO[C@]3(C)C[C@@H](O)[C@@H]12	72
